Experiments:
[1] = tested on: Parkinsonian rats; test: Tumor formation after ESC transplantation into striatum of 6-OHDA lesioned rats; assay type: in vivo, rat
Text: Thirty-seven adult male Sprague Dawley rats (250-350 g; from ARC, Australia) were housed and treated according to the guidelines of the Australian and Howard Florey Institute animal ethics committee (07-030). Animals received unilateral stereotaxic injections of 6-OHDA into the substantia nigra pars compacta (SNpc) to create a complete lesion of the midbrain DA neurons, as previously described^29. Lesioned animals were selected for transplantation based on their response to amphetamine induced rotational behaviour as previously described^29. Animals making greater than 6 rotations/min (lesion greater than 80%) were selected for grafting.
Two days prior to grafting animals began cyclosporine-A immune suppression (10 mg/kg). Fourteen days post-lesioning selected animals (determined by behavioural rotations) were again anesthetized and stereotaxically injected with 1 μl of cell suspension at each of the 4 sites as previously described^29. Stereotaxic coordinates of 1st & 2nd Injection (from bregma): anterior 0.2 mm, lateral 3.0 mm, ventral 4.5 and 5.0 mm; 3rd & 4th Injection, anterior 1.0 mm, lateral 2.5 mm, ventral 4.5 and 5.0 mm; incisor bar 0 mm^57). ESCs were differentiated as outlined in FIG. 7a. In brief, ESC colonies were dissected away from the stromal feeder layer and dissociated using collagenase/dispase with agitation (700 μg/ml, Roche, for 20 min, 80 rpm). Cells were subsequently resuspended at a density of 3,000 cells/μl ready for grafting. Five rats received Sham injections (4 μl N2 media, 1 μl/site), 16 rats received a total of 12,000 ESCs (4×1 μl grafts) pre-treated with the Control peptide (of which 9 of these animals also received infusion of the Control peptide) and a further 16 rats received grafts pretreated with the Cripto blocking peptide (9 animals receiving infusion of the Cripto BP).
The peptide infusion was performed by implantation of a cannula into the striatum (Alzet brain infusion kit) connected to a subcutaneously placed osmotic minipump (Alzet) prefilled with either CP or Cripto BP. Implantation was performed at the same time as the cell grafting. Cannula coordinates: anterior 0.5 mm, lateral 1.5 mm, ventral 5.0 mm; incisor bar 0 mm^57. The osmotic pump was capable of continuously delivering the peptide over a 3 weeks period (75 μM, 0.25 μl/hr) upon which time the animals were briefly anaesthetized with isoflurane and the pump removed through a small incision over the scapular region.
Eight weeks post grafting, rats were killed by an overdose of sodium pentobarbital (100 mg kg^−1 i.p.) and intracardially perfused as previously described^29. Brains were removed, post fixed for 1 hour, and then left overnight at 4° C. in 20% sucrose in PBS. The following day, 20 μm-thick coronal sections were cut serially through the striatum (12 series) and 50 μm through the SNpc and mounted directly onto chrome alum [K2Cr(SO4)2.12H2O] gelatinized slides.
One series of slides containing grafted striata was counterstained using 1% Neutral red to visualise the graft/tumor size and the gross morphology of the striatum.
Labeling was visualized by light or fluorescent illumination using an inverted microscope (DMIRB, Leica Microsystems, Wetzelar, Del., http://www.leica-microsystems.com) or upright microscope (Leica DMLB2). Images were acquired on a DC 350 FX camera (Leica). Area of grafts and tumors was calculated using Stereo Investigator software (MicroBrightField, Vt., USA).

[2] = tested on: wild-type EBs; test: Neuronal differentiation of wild-type EBs, βIII-tubulin immunofluorescence grades; assay type: cell-based, mouse; details: 25 μM peptide, 13 day-old EBs, mean±SD
Procedure: Undifferentiated ESCs were cultured as previously described^55.
Immunofluorescence analysis on adherent EBs, dopaminergic differentiated ESC and striatal grafts were performed as previously described^29, 35. The following primary antibodies were used: mouse anti-βIII-tubulin (Tuj1, 1:1000, Promega); anti-βIII tubulin (Sigma; 1:400), rabbit anti-tyrosine hydroxylase (TH, 1:200, PelFreez); mouse anti-TH (1:500, Chemicon); Nurr-1 (1:250, Santa Cruz); rabbit anti-Pitx3 (1:200, InVitrogen), rabbit anti-GIRK-2 (1:100, Chemicon); rat anti-DAT (1:1000, Chemicon); rabbit anti-5HT (1:200, Biogenesis); rabbit anti-NET (1:20, Chemicon), rabbit anti-GABA (1:500, Sigma); rabbit anti-Ki67 (1:1000, Neomarkers); and rat anti-Nestin (1:100, Developmental Studies Hybridoma Bank). Appropriate fluorophore conjugated secondary antibodies were used for visualization: (Cyanin-2, Cy3 and Cy5, 1:500, Jackson ImmunoResearch or Alexa-488, Alexa-594 and Alexa-633, 1:200, Molecular Probes).
Thus, if specific and effective, Cripto BP should be able to re-direct ESC fate and promote neural induction and neurogenesis. To address this issue, 2 day-old wild-type EBs were treated as described above, with either control (CP), dimeric (DP) or blocking (BP) peptides and both morphological and immunofluorescence analysis were performed on 13 day-old EBs. […]

C[S+]([O-])CCC(N)C(=O)N[C@@H](CSCc1ccccc1)C(=O)N[C@@H](CSCc1ccccc1)C(=O)N[C@@H](CCCCNC(=O)[C@H](CSCc1ccccc1)NC(=O)[C@H](CSCc1ccccc1)NC(=O)[C@@H](N)CC[S+](C)[O-])C(=O)N[C@@H](CCCCNC(=O)[C@H](CCCCNC(=O)[C@H](CSCc1ccccc1)NC(=O)[C@H](CSCc1ccccc1)NC(=O)[C@@H](N)CC[S+](C)[O-])NC(=O)[C@H](CSCc1ccccc1)NC(=O)[C@H](CSCc1ccccc1)NC(=O)[C@@H](N)CC[S+](C)[O-])C(=O)NCC(=O)O (some centres unmarked) [Cripto BP]
tumor volume ([1]; ESCs pre-treated with peptide + peptide infusion): 0.79 um^3×10^10 | tumor formation (rats with tumors) ([1]; ESCs pre-treated with peptide, no infusion, 8 weeks): 42% | tumor volume ([1]; ESCs pre-treated with peptide, no infusion, Mean±SEM): 1.09 um^3×10^10 | further reduction of tumor incidence by continual infusion into the striatum ([1]; pre-treated ESCs + peptide infusion (75 μM, 0.25 μl/hr, 3 weeks)): 9% | animals with grafts without proliferating or undifferentiated cells ([1]; range over pre-treatment without and with infusion): 58-67% | reduction of tumor formation compared to control peptide ([1]; rat, in vivo): more than 50% | EBs with Grade 0 phenotype (absence of neurons) [2]: 17.4%±1.15 | EBs with Grade 3 phenotype (full neuronal differentiation) [2]: 45.6%±5.2
